Data from PubChem BioAssay AID1963972 (Molecular Pharmacology Branch, DTP, NCI, 2024).
pIC50: −log10 of the molar value. Several values for one entry are separate records, joined by “and”; a condition that tells them apart may be missing. Equal values may be shown once.

Test system: 945468-187-T-J2-PDC spheroids viability
Assay: Anticancer human tumor 945468-187-T-J2-PDC patient-derived rectal carcinoma cell line growth inhibition [PI3K]
Details: spheroids with HUVEC and MSC; for viability, T/C: stronger effect = lower value
From the text: Combinatorial screen of targeted agents with the PI3K inhibitors inavolisib, alpelisib, duvelisib, and copanlisib in multi-cell type tumor spheroids
A high-throughput screen of multi-cell type tumor spheroids was designed to identify active combinations of targeted small molecules and PI3K pathway inhibitors. Complex spheroids include a stromal component modeled by human endothelial cells (HUVEC) and fibroblasts modeled by human mesenchymal stem cells (MSCs). The concentration ranges selected for each drug and investigational agent were based upon clinically achievable concentrations if the clinical Cmax of the agent was known.
Compounds. The drugs and investigational agents: inavolisib (NSC800729), alpelisib (NSC765974), duvelisib (NSC772469), copanlisib (NSC816437), ipatasertib (NSC767898), afuresertib (NSC778305), talazoparib (NSC767125), sapanisertib (NSC764658), selumetinib (NSC741078), tovorafenib (DAY101, NSC766906), vemurafenib (NSC761431), ravoxertinib (NSC781343), sotorasib (NSC818433), MRTX1133 (NSC 836407), abemaciclib (NSC 768073), palbociclib (NSC758247), venetoclax (NSC 766270), SY5609 (NSC837396), enzalutamide (NSC755605), and darolutamide (NSC825331), were obtained from the National Cancer Institute (NCI) Developmental Therapeutics Program Chemical Repository. The FDA-approved anticancer drug set is available from the NCI Developmental Therapeutics Program. […] The stock solutions were prepared in dimethyl sulfoxide (DMSO, Sigma-Aldrich, St. Louis, MO, cat. D2650) at 800-fold the tested concentration and stored at -70 degrees C prior to their use. All drugs and investigational agents were tested over a range starting from a high concentration at or near the clinical Cmax and decreasing in half-log increments. If the clinical Cmax for an agent had not been determined, the highest concentration tested was 10 microM.
Cell Culture. All cells were maintained in an incubator at 37 degrees C and 5% CO2 with 95% humidity. The PDC lines were cultured according to standard operating procedures established by the NCI PDMR (https://pdmr.cancer.gov/sops/default.htm). All PDCs were thawed and cultured in Matrigel-coated flasks prepared with a working solution of 1X Ham's F-12 nutrient mix, without supplementation (Invitrogen, Waltham, MA, cat. 11765054), 100 U/mL penicillin-streptomycin (Invitrogen, cat. 15140122), and 2.5% Matrigel (Corning Inc., Corning, NY, cat. 354248) for the first three passages. The 354836-022-R-J1-PDC, 475296-252-R-J1-PDC, and 997726-040-R-J2-PDC lines were cultured in 6A media, which includes advanced DMEM/F-12 (Thermo Fisher Scientific, cat. 12634028), 10 mM HEPES (Thermo Fisher Scientific, cat. 15630080), 1X GlutaMAX supplement (Thermo Fisher Scientific, cat. 35050061), 0.1 mg/mL primocin (InvivoGen, San Diego, CA, cat. ant-pm-2), 10% defined fetal bovine serum, heat inactivated (HyClone Laboratories Inc., Logan, UT, cat. SH30070.03HI), 50% L-WRN conditioned media (ATCC, cat. CRL-3276), 1.25 mM N-Acetyl-L-cysteine (Sigma-Aldrich, cat. A9165), 10 mM nicotinamide (Sigma-Aldrich, cat. N0636), 1X B-27 supplement (Thermo Fisher Scientific, cat. 17504044), 1X N-2 supplement (Thermo Fisher Scientific, cat. 17502048), and 10 microM Y-27632 dihydrochloride (Tocris Bioscience, Bristol, United Kingdom, cat. 1254). The 624824-186-R-J2-PDC line was cultured in 6C/Colon 1B media, which includes all 6A media components plus 50 ng/mL human EGF recombinant protein (Thermo Fisher Scientific, cat. PHG0311). […]
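Note: spheroids exposed to compounds for seven days before reading.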

## Cn1ncnc1[C@H]1c2n[nH]c(=O)c3cc(F)cc(c23)N[C@@H]1c1ccc(F)cc1 + Cc1nc(NC(=O)N2CCCC2C(N)=O)sc1-c1ccnc(C(C)(C)C(F)(F)F)c1
Curve of first compound, second compound 0.0316 µM
  pIC50: < 7.00
Curve of first compound, second compound 0.1 µM
  pIC50: < 7.00
Curve of first compound, second compound 0.316 µM
  pIC50: < 7.00
Curve of first compound, second compound 1 µM
  pIC50: < 7.00
Curve of first compound, second compound 3.16 µM
  pIC50: < 7.00
Curve of first compound, second compound 10 µM
  pIC50: < 7.00
Second compound 0.0316 µM, first compound 0.000316 µM
  viability, T/C: 103%
Second compound 0.0316 µM, first compound 0.001 µM
  viability, T/C: 83.4%
Second compound 0.0316 µM, first compound 0.00316 µM
  viability, T/C: 130%
Second compound 0.0316 µM, first compound 0.01 µM
  viability, T/C: 100%
Second compound 0.0316 µM, first compound 0.0316 µM
  viability, T/C: 91.6%
Second compound 0.0316 µM, first compound 0.1 µM
  viability, T/C: 130%
Second compound 0.1 µM, first compound 0.000316 µM
  viability, T/C: 106%
Second compound 0.1 µM, first compound 0.001 µM
  viability, T/C: 109%
Second compound 0.1 µM, first compound 0.00316 µM
  viability, T/C: 129%
Second compound 0.1 µM, first compound 0.01 µM
  viability, T/C: 91.2%
Second compound 0.1 µM, first compound 0.0316 µM
  viability, T/C: 117%
Second compound 0.1 µM, first compound 0.1 µM
  viability, T/C: 131%
Second compound 0.316 µM, first compound 0.000316 µM
  viability, T/C: 110%
Second compound 0.316 µM, first compound 0.001 µM
  viability, T/C: 119%
Second compound 0.316 µM, first compound 0.00316 µM
  viability, T/C: 89.4%
Second compound 0.316 µM, first compound 0.01 µM
  viability, T/C: 82.2%
Second compound 0.316 µM, first compound 0.0316 µM
  viability, T/C: 117%
Second compound 0.316 µM, first compound 0.1 µM
  viability, T/C: 117%
Second compound 1 µM, first compound 0.000316 µM
  viability, T/C: 108%
Second compound 1 µM, first compound 0.001 µM
  viability, T/C: 104%
Second compound 1 µM, first compound 0.00316 µM
  viability, T/C: 103%
Second compound 1 µM, first compound 0.01 µM
  viability, T/C: 119%
Second compound 1 µM, first compound 0.0316 µM
  viability, T/C: 134%
Second compound 1 µM, first compound 0.1 µM
  viability, T/C: 89.3%
Second compound 3.16 µM, first compound 0.000316 µM
  viability, T/C: 94%
Second compound 3.16 µM, first compound 0.001 µM
  viability, T/C: 97.1%
Second compound 3.16 µM, first compound 0.00316 µM
  viability, T/C: 86.5%
Second compound 3.16 µM, first compound 0.01 µM
  viability, T/C: 90.2%
Second compound 3.16 µM, first compound 0.0316 µM
  viability, T/C: 90.4%
Second compound 3.16 µM, first compound 0.1 µM
  viability, T/C: 92%
Second compound 10 µM, first compound 0.000316 µM
  viability, T/C: 99.3%
Second compound 10 µM, first compound 0.001 µM
  viability, T/C: 85.5%
Second compound 10 µM, first compound 0.00316 µM
  viability, T/C: 88.6%
Second compound 10 µM, first compound 0.01 µM
  viability, T/C: 77.8%
Second compound 10 µM, first compound 0.0316 µM
  viability, T/C: 91.5%
Second compound 10 µM, first compound 0.1 µM
  viability, T/C: 89.8%

## Cn1nccc1Nc1nccc(-c2ccn(C(CO)c3ccc(Cl)c(F)c3)c(=O)c2)n1 (configuration not stated)
Compound 0.1 µM
  viability, T/C: 101% [middle of 4 runs]
Compound 0.316 µM
  viability, T/C: 101% (2×) and 108% and 94.5%
Compound 3.16 µM
  viability, T/C: 94.1% [middle of 4 runs]
Compound 10 µM
  viability, T/C: 78.3% [middle of 4 runs]
Curve of compound
  pIC50: < 5.00
